Structures can show the parent of a compound that is named as a salt.
tested on: hMDMs differentiated into M1 by IFNγ plus TNFα; experiment: Reprogramming screen and dosage response on M1-like differentiated macrophages; type: cell-based, human; details: Homo sapiens, Macrophage, 24 h; M2-activating compounds on M1-like macrophages (IFNγ plus TNFα); EC = concentration reaching Z-score cutoff
Procedure: Data were summarized from 3 independent experiments.
Human macrophages were seeded into optical 384-well plates. Sixteen hours later, medium in M1 plates were replaced by M1 differentiating medium (complete RPMI with 50 ng/mL IFNγ and 50 ng/mL TNFα) and medium in M2 plates by M2 differentiating medium (complete RPMI with 5 ng/mL IL-4 and 5 ng/mL IL-13). After 24 hrs cell differentiation, M1 plates (M1 macrophages) and M2 plates (M2 macrophages) were treated with M2-activating compounds and M1-activating compounds respectively for 24 hrs. Two independent experiments were performed with or without replacing differentiating medium right before treatment. Cell imaging and analysis were performed as indicated above.
To investigate whether the identified compounds could reprogram or reactivate macrophages after M1- or M2-like differentiation, we rescreened the hits on M1- or M2-activated macrophages. hMDMs were activated into M2-like macrophages by IL-4 plus IL-13 or M1-like macrophages by IFNγ plus TNFα. […] 24 hours later, cell images were taken and cell shapes were quantified.
We also rescreened the hits on differentiated macrophages in the presence of differentiating cytokines: either IL-4 plus IL-13 or IFNγ plus TNFα.

Compound	EC (M2 Z-score cutoff) [µM]
CNC(=O)c1ccccc1Sc1ccc2c(/C=C/c3ccccn3)n[nH]c2c1 [Axitinib]	0.591
COc1cc(Nc2c(C#N)cnc3cc(OCCCN4CCN(C)CC4)c(OC)cc23)c(Cl)cc1Cl [Bostunib]	0.164
Cc1nc(Nc2ncc(C(=O)Nc3c(C)cccc3Cl)s2)cc(N2CCN(CCO)CC2)n1 [Dasatinib]	0.762
COc1cc2ncn(-c3cc(OCc4ccccc4C(F)(F)F)c(C(N)=O)s3)c2cc1OC [GW-843682X]	0.897
O=C(c1ccc(/C=C/c2n[nH]c3ccccc23)cc1)N1CCNCC1 [KW 2449]	2.16
COCCNCc1ccc(-c2cc3nccc(Oc4ccc(NC(=S)NC(=O)Cc5ccc(F)cc5)cc4F)c3s2)nc1 [MGCD-265]	0.911
CC(C)C[C@H](NC(=O)CNC(=O)c1cc(Cl)ccc1Cl)B(O)O [MLN2238]	3.46
Cc1c(C(=O)Nc2ccc(N3C[C@@H](C)O[C@@H](C)C3)nc2)cccc1-c1ccc(OC(F)(F)F)cc1 [NVP-LDE225]	2.77
c1ccc2c(Oc3nc(Nc4ccc(N5CCOCC5)cc4)c4ncn(C5CCCCC5)c4n3)cccc2c1 [Purmorphamine]	2.35
CNC(=O)c1cc(Oc2ccc(NC(=O)Nc3ccc(Cl)c(C(F)(F)F)c3)c(F)c2)ccn1 [Regorafenib]	2.88
CO[C@H]1C[C@H](O[C@@H]2/C(C)=C/C[C@@H]3C[C@@H](C[C@]4(CC[C@H](C)[C@@H](C5CCCCC5)O4)O3)OC(=O)[C@@H]3C=C(C)/C(=N/O)[C@H]4OC/C(=C\C=C\[C@@H]2C)[C@]43O)O[C@@H](C)[C@@H]1O [SELAMECTIN]	15
CNC(=O)c1cc(Oc2ccc(NC(=O)Nc3ccc(Cl)c(C(F)(F)F)c3)cc2)ccn1 [Sorafenib]	0.794
CC[C@H](C)C(=O)O[C@H]1C[C@@H](C)C=C2C=C[C@H](C)[C@H](CC[C@@H]3C[C@@H](O)CC(=O)O3)[C@H]21 [lovastatin]	0.442
CC(C)[C@]12O[C@H]1[C@@H]1O[C@]13[C@]1(O[C@H]1C[C@H]1C4=C(CC[C@@]13C)C(=O)OC4)[C@@H]2O [triptolide]	0.0619

same assay, conditions: M2-activating compounds on M1-like macrophages (IFNγ plus TNFα); EC = concentration reaching Z-score cutoff

Compound	EC (M2 Z-score cutoff) [µM]
CC(C)(C)n1nc(-c2cccc3ccccc23)c2c(N)ncnc21 [1-Naphthyl PP1]	2.072
O=C1NC(=O)c2c1c1c3ccccc3[nH]c1c1[nH]c3ccccc3c21 [Arcyriaflavin A]	1.342
OC[C@H](Cc1ccccc1)Nc1nc(Oc2ccc3c(c2)CCC3)nc2c1ncn2Cc1ccc(-c2ccccc2)cc1 [QS 11]	0.2611
JTE 013	0.9381

same assay, conditions: differentiated macrophages

Compound	Category
CC(C)(C)n1nc(-c2cccc3ccccc23)c2c(N)ncnc21 [1-Naphthyl PP1]	M2 (6 for M2-activated macrophages)
O=C1NC(=O)c2c1c1c3ccccc3[nH]c1c1[nH]c3ccccc3c21 [Arcyriaflavin A]	M2 (6 for M2-activated macrophages)
OC[C@H](Cc1ccccc1)Nc1nc(Oc2ccc3c(c2)CCC3)nc2c1ncn2Cc1ccc(-c2ccccc2)cc1 [QS 11]	M2 (6 for M2-activated macrophages)
JTE 013	M2 (6 for M2-activated macrophages)

tested on: hMDMs differentiated into M2 by IL-4 plus IL-13; experiment: Reprogramming screen and dosage response on M2-like differentiated macrophages; details: Homo sapiens, Macrophage, 24 h, read-out: EC;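 further: human monocyte-derived macrophages held 24 h in 5 ng/mL IL-4 plus IL-13 before 24 h compound exposure, with cell shape measured from images in 384-well plates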

Compound	EC (M1 Z-score cutoff) [µM]
CCCCC[C@H](O)/C=C/[C@H]1[C@H](O)CC(=O)[C@@H]1CCCCCCC(=O)O [Alprostadil]	0.0562
C[C@@]12C(=O)OC(=O)[C@]1(C)[C@H]1CC[C@@H]2O1 [Cantharidin]	0.159
COc1ccc(S(=O)(=O)N(C(C)=O)c2ccccc2/C=C/c2cc[n+]([O-])cc2)cc1 [HMN214]	1.48
O=C1c2c(O)ccc(O)c2C(=O)c2c(NCCNCCO)ccc(NCCNCCO)c21 [MITOXANTRONE HYDROCHLORIDE]	0.559
O=C(Nc1ccc([N+](=O)[O-])cc1Cl)c1cc(Cl)ccc1O [Niclosamide]	1.13
OC1(c2ccc(Cl)c(C(F)(F)F)c2)CCN(CCCC(c2ccc(F)cc2)c2ccc(F)cc2)CC1 [Penfluridol]	0.169
Cc1oc(=O)oc1CN1CCN(c2cc3c(cc2F)c(=O)c(C(=O)O)c2n3C(C)S2)CC1 (stereo not shown) [Prulifloxacin]	15

same assay, conditions: M1-activating compounds on M2-like macrophages (IL-4 plus IL-13); EC = concentration reaching Z-score cutoff

Compound	EC [µM]
CC(C)c1ccc(Cn2ccc3c4c(N)nc(NC5CC5)nc4ccc32)cc1.Cl.Cl [SCH 79797 dihydrochloride]	0.2194
O=C1c2ccccc2-c2nc3nonc3nc21 [SMER3]	0.09398
CCC[C@H](NC(=O)/C(C#N)=C/c1cccc(Br)n1)c1ccccc1 [WP1130]	15
Evodiamine	0.6799

same assay, conditions: differentiated macrophages

Compound	Category
CC(C)c1ccc(Cn2ccc3c4c(N)nc(NC5CC5)nc4ccc32)cc1.Cl.Cl [SCH 79797 dihydrochloride]	M1 (−4 for M1-activated macrophages)
O=C1c2ccccc2-c2nc3nonc3nc21 [SMER3]	M1 (−4 for M1-activated macrophages)
CCC[C@H](NC(=O)/C(C#N)=C/c1cccc(Br)n1)c1ccccc1 [WP1130]	M1 (−4 for M1-activated macrophages)

tested on: human monocyte-derived macrophages (hMDMs); experiment: High throughput phenotypic screen of macrophage activation (cell shape, Z-score); type: cell-based; set-up: key to Average Z-value: Z-score vs DMSO; negative = round cells, positive = elongated; details: average cell-shape Z-score of the listed compounds whose targets fall in the Wiki pathway; hMDMs, 20 µM, 24 hours; M1-activating compounds (negative Z);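 further: phalloidin and DAPI stained hMDMs imaged by high-content microscopy, cell eccentricity compared with DMSO control by T-test, round morphology scored negative, elongated positive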
Procedure: The Z-score was calculated by T-test to measure the difference of cell morphology between treatment and control. Stimuli had negative Z-scores when induced cells to round morphology and positive scores when induced cells to elongated morphology. […] Equally mixed human monocytes isolated from fresh blood of 4 healthy donors were cultured in vitro with 50 ng/mL M-CSF for 7 days. hMDMs were trypsinized and plated on 384-well plates (5000 cells/well in 50 μL). Cells were recovered in 10 ng/mL M-CSF for 16 hrs and then treated with compounds for 24 hrs. Cells were washed, fixed and stained with Phalloidin and DAPI. The plates were scanned with a high-content microscope with six-fields per well to quantify the cell number and cell morphology. […] The cell eccentricity was calculated to measure the cell morphology. The Z-score was calculated by T-test to measure the difference in cell morphologies between each compound and DMSO control.
Cells were treated with a library of over 4000 individual compounds or drugs at the final concentration of 20 μM using the CyBi-Well simultaneous pipettor (CyBio). […] After 24 hr incubation, supernatants were removed using the microplate washer (Bioteck) and cells were fixed by adding 50 μL 16% paraformaldehyde (Thermo Scientific) with the dispenser for 20 minutes. Cells were then washed with 50 μL 1×PBS twice and incubated for 20 minutes with NucBlue and AF746 Phalloidin (Invitrogen) to stain nucleus and cytoskeleton. Cells were then washed with 50 μL 1×PBS twice and maintained in PBS for the image acquirement. Plates were read in the Opera Phenix high content screening system (PerkinElmer) to photograph cells using 20× objective in 2 fluorescent channels (Blue and FarRed). A total of 6 different fields in each well and an average of 1,000 cells were imaged per well. CellProfiler was used to identify each cell by overlapping signals from its nucleus and cytoskeleton, and calculate the eccentricity as the parameter to measure the cell morphology. The Z-score was calculated by T-test to measure the difference of cell morphology between each treatment and control. For each row of the 384-well plate, total 4 wells with first and last two columns treated with the same concentration of DMSO were combined as the control for the other 20 treatment wells in that row. In the meantime, classic M1 and M2 stimuli were added to generate the gold-standard Z-score cutoffs with M1 or M2 activation. Classic M1 stimuli include LPS (100 ng/mL), IFNγ (50 ng/mL, Peprotech), TNFα (50 ng/mL, Peprotech), or IFNγ plus TNFα. Classic M2 stimuli include IL-10 (10 ng/mL, Peprotech), IL-4 (10 ng/mL, Peprotech), or IL-13 (5 ng/mL, Peprotech).

Compound	Average Z-value
OCCN(CCO)c1nc(N2CCCCC2)c2nc(N(CCO)CCO)nc(N3CCCCC3)c2n1 [DIPYRIDAMOLE]	−4.41
O=C(c1ccc(Nc2nccc(-c3cc4ccccc4s3)n2)cc1)N1CCC(N2CCCC2)CC1 [IKK 16]	−4.98

same assay, conditions: cell shape Z-score of hMDMs averaged over the compounds listed for the Wiki pathway; compounds at 20 µM for 24 hours; positive values = M2-like

Compound	Average Z-value
CC1(C)C(=O)C=C[C@]2(C)[C@H]3CC[C@@]4(C)[C@H](c5ccoc5)OC(=O)[C@H]5O[C@]54[C@]3(C)C=C[C@@H]12 [7-DESACETOXY-6,7-DEHYDROGEDUNIN]	7.92
O=C1Cc2c([nH]c3ccc([N+](=O)[O-])cc23)-c2ccccc2N1 [Alsterpaullone]	12.55
c1cc(-c2cnn3cc(-c4ccc(OCCN5CCCCC5)cc4)cnc23)ccn1 [Dorsomorphin dihydrochloride]	11.09
CN(C)CCC=C1c2ccccc2COc2ccccc21 [Doxepine HCl]	6.87
Cl.Cl.O=S(=O)(NCCNC/C=C/c1ccc(Br)cc1)c1cccc2cnccc12 [H 89 dihydrochloride]	7.14
O=C(O)c1nn(Cc2ccc(Cl)cc2Cl)c2ccccc12 [LONIDAMINE]	6.13
COc1cc(C(=O)N2CCC(N3CCN(C)CC3)CC2)ccc1Nc1ncc2c(n1)N(C)c1ccccc1C(=O)N2C [LRRK2-IN-1]	8.88
CC(C)C[C@H](NC(=O)CNC(=O)c1cc(Cl)ccc1Cl)B(O)O [MLN2238]	7.13
CCC[C@H](N[C@@H](C)C(=O)N1[C@H](C(=O)O)C[C@@H]2CCCC[C@@H]21)C(=O)OCC [PERINDOPRIL ERBUMINE]	7.27
CC1=C(/C=C/C(C)=C/C=C/C(C)=C/C(=O)O)C(C)(C)CCC1 [Retinoic acid]	6.86
CC[C@@H]1/C=C/C=C/C[C@H](C)[C@H](O)[C@](C)(O)C(=O)[C@H](C)[C@@H](O)[C@H](C)C(=O)[C@H](C)[C@@H](O)[C@H](C)/C=C/C(=O)O[C@H]2[C@@H](C)[C@@H](CC1)O[C@@]1(CC[C@@H](C)[C@@H](C[C@H](C)O)O1)[C@@H]2C [oligomycin A]	7.16
Cc1onc(-c2ccccc2)c1-c1ccc(S(N)(=O)=O)cc1 [valdecoxib]	8.60
(−)-Epigallocatechin Gallate	7.36

same assay, conditions: cell shape Z-score of hMDMs treated with compound at 20 µM for 24 hours; averaged over the compounds listed for the WikiPathways pathway; negative = M1-like, positive = M2-like

Compound	Average Z-value
O=C1Nc2ccccc2C2=NC(CN3CCN(c4ccccc4)CC3)CN12 (stereo not shown)	−9.21
CCCCC[C@H](O)/C=C/[C@H]1[C@H](O)CC(=O)[C@@H]1CCCCCCC(=O)O [Alprostadil]	−4.86
CCOc1nc2cccc(C(=O)OC(C)OC(=O)OC3CCCCC3)c2n1Cc1ccc(-c2ccccc2-c2nn[nH]n2)cc1 (stereo not shown) [CANDESARTAN CILEXTIL]	−4.32
Cc1c[nH]c(-c2cnc(NCCNc3ccc(C#N)cn3)nc2-c2ccc(Cl)cc2Cl)n1 [CHIR-99021]	−4.52
COc1cc2c(cc1OC)[C@@H]1C(=O)c3ccc4c(c3O[C@@H]1CO2)C[C@H](C(C)C)O4 [DIHYDROROTENONE]	−5.14
OCCN(CCO)c1nc(N2CCCCC2)c2nc(N(CCO)CCO)nc(N3CCCCC3)c2n1 [DIPYRIDAMOLE]	−4.41
COc1c(C)c2c(c(O)c1C/C=C(\C)CCC(=O)O)C(=O)OC2 [Mycophenolic acid]	−4.54
Cc1nc(Nc2[nH]nc3c2CN(C(=O)N[C@H](CN(C)C)c2ccccc2)C3(C)C)c2sccc2n1 [PF-3758309]	−4.29
CC[C@@]1(O)C(=O)OCc2c1cc1n(c2=O)Cc2cc3c([N+](=O)[O-])cccc3nc2-1 [Rubitecan]	−4.17
Cc1ccc(O)c(N=Nc2ccccc2)n1 [SIB 1757]	−7.89
CCCS(=O)(=O)Nc1ccc(F)c(C(=O)c2c[nH]c3ncc(-c4ccc(Cl)cc4)cc23)c1F [Vemurafenib]	−8.55
C=C1[C@@H](C)[C@H]2[C@H](Cc3ccccc3)NC(=O)[C@]23OC(=O)/C=C/[C@H](O)CCC[C@@H](C)C/C=C/[C@H]3[C@@H]1O [cytochalasin B]	−20.00
YK 4-279	−7.60

same assay, conditions: compounds regulating actin-cytoskeleton

Compound	activation state induced in the screen
COc1cc2c(c(OC)c1OC)-c1ccc(OC)c(=O)cc1[C@@H](NC(C)=O)CC2 [colchicine]	M2-activating
C=C1[C@@H](C)[C@H]2[C@H](Cc3ccccc3)NC(=O)[C@]23OC(=O)/C=C/[C@H](O)CCC[C@@H](C)C/C=C/[C@H]3[C@@H]1O [cytochalasin-B]	M1-activating
COC(=O)Nc1nc2ccc(SC(C)C)cc2[nH]1 [methiazole]	M1-activating
CCCCc1ccc2[nH]c(NC(=O)OC)nc2c1 [parbendazole]	M1-activating
COc1cc([C@@H]2c3cc4c(cc3[C@H](O)[C@H]3COC(=O)[C@H]23)OCO4)cc(OC)c1OC [podofilox]	M2-activating
CC[C@]1(O)C[C@@H]2CN(CCc3c([nH]c4ccccc34)[C@@](C(=O)OC)(c3cc4c(cc3OC)N(C)[C@H]3[C@@](O)(C(=O)OC)[C@H](OC(C)=O)[C@]5(CC)C=CCN6CC[C@]43[C@@H]65)C2)C1 [vinblastine sulfate]	M2-activating

same assay, conditions: known M1-/M2-activating stimuli

Compound	cell shape induced
IL13: classic M2 stimulus	elongated cell shape
TNFα	round shape
lipopolysaccharide [LPS]	round shape

Reference: patent US20250262167A1, “COMPOUNDS, TARGETS AND PATHWAYS FOR MACROPHAGE MODULATION” (Massachusetts Institute of Technology, priority 2020, published 2025)
